Active and inactive are the calls of the source.
Assays:
[1] = HPDE-C7 pancreatic duct cell viability loss – fluorescence, HTS (AID 430); format: functional, cell-based; settings: Homo sapiens
[2] = viability loss of HPDE-C7K cells – cell-based, fluorescence, HTS, primary screen (AID 431); format: functional; settings: Homo sapiens
Estrogen receptor beta [3] = biological target: T1, Estrogen receptor beta (Homo sapiens, UniProt Q92731);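 note: recombinant ER-beta bound to coactivator SRC1 peptide in presence of estradiol agonist; inhibitors block coactivator peptide binding and lower the FRET signal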
Estrogen receptor beta [4] = biological target: T1, Estrogen receptor beta; test: blockers of SRC-3 recruitment to ERβ – biochemical, ELISA, streptavidin-HRP readout, orthogonal assay, confirmation (AID 1060)
[5] = biological target: Sphingosine 1-phosphate receptor 2 (Homo sapiens, UniProt O95136); test: Dose Response Cell Based Assay for Agonists of the S1P2 Receptor of Purchased Analogues. [Related pubchem assays: 729, 843, 854, 736 ]; format: functional
[6] = Trypanosoma cruzi growth suppression in host cells – NIH3T3 host cells, beta-gal luminescence, confirmation (AID 2044); format: functional, cell-based;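 note: intracellular parasites grown in NIH/3T3 mouse fibroblasts as host cells; luminescent beta-galactosidase reporter signal from transgenic T. cruzi replicating inside host cells; inhibitors lower the luminescence signal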
[7] = NIH3T3 cell viability loss – ATP luminescence, mouse fibroblasts, counter-screen, dose response (AID 2010); format: functional, cell-based;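 note: cells exposed to compound for about 90 hours before reading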
[8] = THP-1 cell cytotoxicity, dose response, cytotoxicity control for non-replicating M. tuberculosis project (AID 489025); format: functional
[9] = biological target: T2, Microphthalmia-associated transcription factor (Homo sapiens, UniProt O75030); test: reducers of TRPM1 reporter luminescence, concentration series – cell-based, SK-MEL-5, cherry-picked, set 3, MITF inhibitor project, dose response (AID 493073); format: functional;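 note: SK-MEL-5 melanoma cells with luciferase driven by the MITF target TRPM1 promoter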
T2 sequence (O75030 whole entry): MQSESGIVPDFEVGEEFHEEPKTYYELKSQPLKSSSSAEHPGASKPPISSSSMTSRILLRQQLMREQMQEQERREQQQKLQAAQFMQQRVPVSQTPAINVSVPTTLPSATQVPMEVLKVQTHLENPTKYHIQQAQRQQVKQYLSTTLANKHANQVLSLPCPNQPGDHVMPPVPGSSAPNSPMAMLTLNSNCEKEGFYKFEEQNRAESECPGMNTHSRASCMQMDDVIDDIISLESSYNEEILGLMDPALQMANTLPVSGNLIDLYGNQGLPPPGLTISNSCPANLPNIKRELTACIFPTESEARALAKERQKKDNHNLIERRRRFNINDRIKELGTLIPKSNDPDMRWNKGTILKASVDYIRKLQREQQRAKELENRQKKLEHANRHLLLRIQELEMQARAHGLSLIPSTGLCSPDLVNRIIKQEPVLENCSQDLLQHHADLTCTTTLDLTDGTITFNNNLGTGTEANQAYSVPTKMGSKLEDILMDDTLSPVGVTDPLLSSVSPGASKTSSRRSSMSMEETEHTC

cells [10] = format: functional
cells [11] = test: cells
[12] = NIH-3T3 fibroblast cytotoxicity, dose response, cytotoxicity control, cell-based, fluorescence, Alamar Blue, secondary assay (AID 2327); format: functional;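 note: NIH-3T3 mouse fibroblasts cultured with fluconazole at 8 µg/mL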
[13] = biological target: T3, RNA-binding protein pos-1 (Caenorhabditis elegans, UniProt G5EF15); test: disruptors of C. elegans POS-1 RNA interaction – biochemical, fluorescence polarization, dose response (AID 1964);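 note: purified POS-1 fused to maltose binding protein made in E. coli; potency of compounds blocking POS-1 binding to fluorescent RNA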
T3 sequence (G5EF15 whole entry): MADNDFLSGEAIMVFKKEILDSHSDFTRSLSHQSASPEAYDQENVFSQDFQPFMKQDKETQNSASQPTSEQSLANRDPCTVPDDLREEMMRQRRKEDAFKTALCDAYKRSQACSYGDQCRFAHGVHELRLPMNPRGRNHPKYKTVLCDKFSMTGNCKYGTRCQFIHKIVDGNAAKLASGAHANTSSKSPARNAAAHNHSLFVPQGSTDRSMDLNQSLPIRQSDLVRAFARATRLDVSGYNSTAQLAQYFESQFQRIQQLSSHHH

BJ [14] = test: BJ-TERT fibroblast viability loss – cell-based, RAS-independent, luminescence, dose response (AID 1933); format: functional; settings: Homo sapiens
cells [15] = format: functional, cell-based
[16] = biological target: T4, Zinc finger protein mex-5 (Caenorhabditis elegans, UniProt Q9XUB2); test: potency of MEX-5 RNA-binding blockers – biochemical, C. elegans, fluorescence polarization, dose response (AID 1960)
T4 sequence (Q9XUB2 whole entry): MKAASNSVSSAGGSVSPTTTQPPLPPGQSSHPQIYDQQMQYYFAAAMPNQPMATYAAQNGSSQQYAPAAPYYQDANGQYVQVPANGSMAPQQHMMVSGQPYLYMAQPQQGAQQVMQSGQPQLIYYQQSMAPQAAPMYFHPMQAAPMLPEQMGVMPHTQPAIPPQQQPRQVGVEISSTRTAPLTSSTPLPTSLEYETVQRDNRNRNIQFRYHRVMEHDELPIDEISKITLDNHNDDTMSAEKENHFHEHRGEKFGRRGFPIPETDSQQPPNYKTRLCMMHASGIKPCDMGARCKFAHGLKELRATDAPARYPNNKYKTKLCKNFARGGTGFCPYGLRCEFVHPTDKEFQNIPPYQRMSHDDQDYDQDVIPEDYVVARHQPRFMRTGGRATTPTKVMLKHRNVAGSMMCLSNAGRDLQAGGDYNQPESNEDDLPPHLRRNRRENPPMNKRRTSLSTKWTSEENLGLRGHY

Vero = test: mammalian cell viability reduction – secondary assay, cytotoxicity control for West Nile virus antiviral project, dose response (AID 1650); format: functional; settings: Chlorocebus sabaeus
BJ [17] = test: cells; format: functional, cell-based; settings: Homo sapiens
[18] = fluconazole-exposed Candida albicans growth modulators – fluorescence, retest, confirmation (AID 2467); format: functional, cell-based
cells [19] = format: functional, cell-based; remark: listed apart in the source
BJ [20] = test: BJ-TERT-LT-ST fibroblast viability loss – cell-based, RAS-independent, luminescence, dose response (AID 1935); format: functional; settings: Homo sapiens;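 note: BJ fibroblasts immortalized with TERT plus LT and ST oncogenes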
[21] = DRD fibroblast viability loss – cell-based, non-viral oncogenic, luminescence, dose response (AID 1934); format: functional; settings: Homo sapiens
CHO-K1 = test: (§1) Counterscreen for antagonists of the orexin 1 receptor (OX1R; HCRTR1): Homogeneous time resolved fluorescence (HTRF)-based cell-based dose response assay to identify antagonists of the parental CHO-K1 cell line. [Related pubchem assays (depositor defined):AID434989, AID435008, AID463079, AID485270, AID492963, AID492964, AID492965, AID493232, AID504699, AID504701]; format: functional; settings: Cricetulus griseus
[22] = as §1, with “Fluorescence-based” for “Homogeneous time resolved fluorescence (HTRF)-based”, “cell-based high throughput” for “cell-based”, “CHO” for “CHO-K1”; format: functional
[23] = biological target: T5, Orexin/Hypocretin receptor type 1 (Homo sapiens, UniProt O43613); test: Homogeneous Time Resolved Fluorescence (HTRF)-based cell-based high throughput dose response assay for antagonists of the orexin 1 receptor (OX1R; HCRTR1). [Related pubchem assays (depositor defined):AID434989, AID435008, AID463079, AID485270, AID492963, AID492964, AID492965, AID493232, AID504717, AID504718]; format: functional
T5 sequence (O43613 whole entry): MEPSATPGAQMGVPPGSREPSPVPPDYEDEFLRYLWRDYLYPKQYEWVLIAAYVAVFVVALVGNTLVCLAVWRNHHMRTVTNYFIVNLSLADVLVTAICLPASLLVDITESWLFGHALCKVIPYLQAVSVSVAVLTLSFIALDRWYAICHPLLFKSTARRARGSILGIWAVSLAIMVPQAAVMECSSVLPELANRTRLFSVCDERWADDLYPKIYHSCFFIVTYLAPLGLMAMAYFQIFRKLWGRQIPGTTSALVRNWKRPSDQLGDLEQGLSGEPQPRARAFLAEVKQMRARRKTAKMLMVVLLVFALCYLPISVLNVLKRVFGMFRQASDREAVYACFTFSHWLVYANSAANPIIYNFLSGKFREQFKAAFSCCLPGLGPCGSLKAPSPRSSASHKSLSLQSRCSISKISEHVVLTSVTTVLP

[24] = biological target: T5, Orexin/Hypocretin receptor type 1; test: Fluorescence-based cell-based high throughput dose response assay for antagonists of the orexin 1 receptor (OX1R; HCRTR1). [Related pubchem assays (depositor defined):AID434989, AID435008, AID463079, AID485270, AID492963, AID492964, AID492965, AID493232, AID504717, AID504718]; format: functional
BJ [25] = test: growth inhibition of engineered Ras-driven BJ cells – cell-based, alamar blue fluorescence, cherrypicked samples, dose response (AID 2631); format: functional; settings: Homo sapiens;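 note: confirmatory dose-response assay in RAS-dependent BJ fibroblasts engineered with TERT, LT and ST, with cytotoxicity read by fluorescence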
INS1 = test: INS-1E survival protection against cytokine death – cell-based, luminescence, retest, dose response (AID 449756); format: functional; settings: Rattus norvegicus;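 note: cell death triggered by IL-1 beta plus TNF-alpha plus IFN-gamma mixture; protective hits raise ATP signal compared with cytokine alone wells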
Orexin receptor type 2 [26] = biological target: T6, Orexin receptor type 2 (Homo sapiens, UniProt O43614); test: Counterscreen assay for antagonists of the orexin 1 receptor (OX1R; HCRTR1): Fluorescence-based cell-based dose response assay for antagonists of the orexin 2 receptor (OX2R; HCRTR2), run by assay provider.; format: functional
T6 sequence (O43614 whole entry): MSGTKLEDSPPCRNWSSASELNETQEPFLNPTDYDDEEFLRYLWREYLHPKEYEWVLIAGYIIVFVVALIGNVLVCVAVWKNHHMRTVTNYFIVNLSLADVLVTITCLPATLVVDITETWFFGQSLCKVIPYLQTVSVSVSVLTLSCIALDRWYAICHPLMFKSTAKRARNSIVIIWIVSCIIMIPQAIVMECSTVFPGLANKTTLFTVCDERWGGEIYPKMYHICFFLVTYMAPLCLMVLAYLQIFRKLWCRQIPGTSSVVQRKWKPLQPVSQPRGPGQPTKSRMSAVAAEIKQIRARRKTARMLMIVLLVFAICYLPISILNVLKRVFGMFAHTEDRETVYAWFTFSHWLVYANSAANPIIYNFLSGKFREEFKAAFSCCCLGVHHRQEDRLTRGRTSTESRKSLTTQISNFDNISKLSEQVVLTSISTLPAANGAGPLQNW

Orexin receptor type 2 [27] = biological target: T6, Orexin receptor type 2; test: Counterscreen assay for antagonists of the orexin 1 receptor (OX1R; HCRTR1): Homogeneous Time Resolved Fluorescence (HTRF)-based cell-based dose response assay for antagonists of the orexin 2 receptor (OX2R; HCRTR2), run by assay provider.; format: functional

Chain of Sphingosine 1-phosphate receptor 2 (O95136 whole entry): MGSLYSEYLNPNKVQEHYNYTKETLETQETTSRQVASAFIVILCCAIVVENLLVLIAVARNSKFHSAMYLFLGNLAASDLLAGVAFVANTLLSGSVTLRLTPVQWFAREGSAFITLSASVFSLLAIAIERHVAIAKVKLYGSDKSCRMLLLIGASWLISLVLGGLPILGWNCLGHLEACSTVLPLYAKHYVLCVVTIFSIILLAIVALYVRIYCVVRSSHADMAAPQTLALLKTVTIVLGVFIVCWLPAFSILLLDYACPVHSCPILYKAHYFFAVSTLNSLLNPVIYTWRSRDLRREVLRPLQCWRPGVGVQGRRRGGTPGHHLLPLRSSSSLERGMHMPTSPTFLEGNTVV
T1 sequence (Q92731 whole entry): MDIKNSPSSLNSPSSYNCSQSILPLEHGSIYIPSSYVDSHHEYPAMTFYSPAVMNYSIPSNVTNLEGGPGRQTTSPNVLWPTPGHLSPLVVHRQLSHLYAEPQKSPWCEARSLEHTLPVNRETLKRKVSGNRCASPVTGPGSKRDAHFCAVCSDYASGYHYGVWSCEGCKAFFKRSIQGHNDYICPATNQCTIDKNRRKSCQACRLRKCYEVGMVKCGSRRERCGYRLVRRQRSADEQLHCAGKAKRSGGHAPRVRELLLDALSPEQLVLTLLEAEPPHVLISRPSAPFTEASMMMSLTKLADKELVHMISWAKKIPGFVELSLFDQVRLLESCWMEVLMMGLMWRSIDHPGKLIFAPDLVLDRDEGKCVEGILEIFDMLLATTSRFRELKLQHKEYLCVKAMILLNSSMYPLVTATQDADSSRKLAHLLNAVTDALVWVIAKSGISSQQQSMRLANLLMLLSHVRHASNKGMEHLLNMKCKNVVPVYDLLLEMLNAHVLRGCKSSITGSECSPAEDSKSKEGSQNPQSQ

N#CC1=C(SCC(=O)Nc2cccc3cccnc23)NC(=O)C(C#N)C12CCCCC2 (stereo unspecified)
EC50 [1]: > 20 µM (not active)
EC50 [2]: > 20 µM (not active)
IC50 (Estrogen receptor beta [3]): > 50 µM (not active)
IC50 (Estrogen receptor beta [4]): > 50 µM (not active)

Cc1cc(C(=O)CSc2nnnn2C(C)(C)C)c(C)n1Cc1ccccc1
EC50 [5]: > 30 µM (not active)

CC(=O)c1cccc(OCC(=O)c2cc(C)n(Cc3ccccc3)c2C)c1
EC50 [5]: > 30 µM (not active)

Cc1cc(C)cc(OCC(=O)N/N=C/c2ccc([N+](=O)[O-])o2)c1
EC50 [6]: < 0.1 µM (active)
EC50 [7]: 33.5 µM (active)
CC50 [8]: 31.5 µM (active)
AC50 [9]: 7.12 µM (active)
IC50 (cells [10]): 2.7 µM (active)
EC50 (cells [11]): 0.153 µM (active)

CCN(CC)c1ccc(/C=N/NC(=O)c2ccco2)c(O)c1
EC50 [12]: 2.76 µM (inconclusive)
EC50 [13]: > 300 µM (not active)
EC50 (BJ [14]): 2.7 µM (inconclusive)
EC50 (cells [15]): 10.3 µM (active)
EC50 [16]: > 300 µM (not active)
CC50 (Vero): 5.13 µM (active)
EC50 (BJ [17]): 3.34 µM (active)
EC50 [18]: 0.787 µM (active)
EC50 (cells [19]): 9.18 µM (active)
EC50 (BJ [20]): 2.66 µM (active)
EC50 [21]: 2.58 µM (active)
IC50 (CHO-K1): > 66.3 µM (inactive)
IC50 [22]: > 49.8 µM (inactive)
IC50 [23]: 2.83 µM (active)
IC50 [24]: 4.03 µM (active)
EC50 (BJ [25]): 0.966 µM (active)
AC50 (INS1): 0.638 µM (active)
IC50 (Orexin receptor type 2 [26]): > 88.8 µM (inactive)
IC50 (Orexin receptor type 2 [27]): > 50 µM (inactive)

— ChEMBL document CHEMBL1201862, “PubChem BioAssay data set” (2004)
